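Briefly, cells in 96-well plates were exposed to five compound concentrations for 48 h, and endpoints were estimated by linear interpolation. Abbreviation: GI50, concentration required for 50% inhibition of growth. TGI marks complete inhibition of growth.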
Assays:
Test in all cases: inhibition of tumour cell growth, NCI panel, 48 h
RPMI-8226 leukemia = tested on: RPMI-8226 leukemia
CCRF-CEM leukemia = tested on: CCRF-CEM leukemia
SNB-19 CNS = tested on: SNB-19 CNS
DU-145 prostate = tested on: DU-145 prostate
HCC-2998 colon = tested on: HCC-2998 colon
786-0 renal = tested on: 786-0 renal
ACHN renal = tested on: ACHN renal
BT-549 breast = tested on: BT-549 breast
U251 CNS = tested on: U251 CNS
RXF 393 renal = tested on: RXF 393 renal

`Nc1c(C(=O)Nc2cccc3ccccc23)sc2nc3c(cc12)C(=O)CCC3` was tested, and the GI50 (RPMI-8226 leukemia) was 0.366 µM, the TGI (RPMI-8226 leukemia) was > 38.2 µM and the GI50 (CCRF-CEM leukemia) was 0.29 µM. The TGI (CCRF-CEM leukemia) was > 100 µM, the GI50 (SNB-19 CNS) was 0.603 µM and the TGI (SNB-19 CNS) was > 81 µM. It also gave a GI50 (DU-145 prostate) of 0.337 µM, a TGI (DU-145 prostate) of 8.71 µM and a GI50 (HCC-2998 colon) of 0.3 µM. It also gave a GI50 (786-0 renal) of 0.388 µM, a TGI (786-0 renal) of 35.8 µM and a GI50 (ACHN renal) of 0.341 µM. For the same compound, the TGI (ACHN renal) was > 58.2 µM, the GI50 (BT-549 breast) was 3.08 µM and the TGI (BT-549 breast) was > 67.1 µM. The GI50 (U251 CNS) was 0.266 µM.
In the case of `S=c1c2ccccc2c(=S)n2n1CC=CC2`, the TGI (RPMI-8226 leukemia) is reported as > 100 µM, the TGI (CCRF-CEM leukemia) is reported as > 100 µM and the TGI (SNB-19 CNS) is reported as > 100 µM. For the same compound, the TGI (HCC-2998 colon) was > 100 µM, the TGI (786-0 renal) was > 100 µM and the TGI (ACHN renal) was > 100 µM. The TGI (U251 CNS) was > 100 µM and the TGI (RXF 393 renal) was > 100 µM.
In the case of `c1ccc(-c2nnc3nn4c(-c5ccccc5)cnnc4c3c2-c2ccccc2)cc1`, the TGI (RPMI-8226 leukemia) is reported as > 100 µM, the TGI (CCRF-CEM leukemia) is reported as > 100 µM and the TGI (SNB-19 CNS) is reported as 61.2 µM. For the same compound, the TGI (HCC-2998 colon) was > 100 µM, the TGI (786-0 renal) was 25.8 µM and the TGI (ACHN renal) was > 100 µM. For the same compound, the TGI (U251 CNS) was > 100 µM and the TGI (RXF 393 renal) was 46.3 µM.
`CCCCNC1=C(C(=O)OCC)/C(=N/NC(=O)c2ccccc2O)CO1` was tested, and the TGI (RPMI-8226 leukemia) was > 100 µM, the TGI (CCRF-CEM leukemia) was > 100 µM and the TGI (SNB-19 CNS) was > 100 µM. The TGI (HCC-2998 colon) was > 100 µM, the TGI (786-0 renal) was > 100 µM and the TGI (U251 CNS) was > 100 µM. For the same compound, the TGI (RXF 393 renal) was > 100 µM.
For `Cc1ccc2nc(NC(=O)C(=O)CC(=O)c3cccc4ccccc34)sc2c1`, the TGI (RPMI-8226 leukemia) was > 100 µM, the TGI (CCRF-CEM leukemia) was > 100 µM and the TGI (SNB-19 CNS) was > 100 µM. For the same compound, the TGI (HCC-2998 colon) was > 100 µM, the TGI (786-0 renal) was 39.3 µM and the TGI (ACHN renal) was > 100 µM. For the same compound, the TGI (U251 CNS) was 49.7 µM.
Compound `C/C(=N/O)c1ccc(Nc2cc(-n3ccnc3)c3ccccc3n2)cc1` has a GI50 (RPMI-8226 leukemia) of 0.716 µM, a TGI (RPMI-8226 leukemia) of 4.42 µM and a GI50 (CCRF-CEM leukemia) of 0.126 µM. For the same compound, the TGI (CCRF-CEM leukemia) was 1.99 µM, the GI50 (SNB-19 CNS) was 75.3 µM and the TGI (SNB-19 CNS) was > 100 µM. For the same compound, the GI50 (DU-145 prostate) was 38.1 µM, the TGI (DU-145 prostate) was > 100 µM and the GI50 (HCC-2998 colon) was 48 µM. The TGI (HCC-2998 colon) was > 100 µM, the GI50 (786-0 renal) was 4.83 µM and the TGI (786-0 renal) was > 100 µM. For the same compound, the GI50 (ACHN renal) was 18.6 µM, the TGI (ACHN renal) was 90.8 µM and the GI50 (BT-549 breast) was 16.8 µM. For the same compound, the TGI (BT-549 breast) was 84.7 µM, the GI50 (U251 CNS) was 27.3 µM and the TGI (U251 CNS) was > 100 µM.
With `O=C(/C=C/C1C(=O)NC(=O)NC1=O)CC(=O)C(=O)Nc1cc(Cl)c(Cl)cc1Cl` the TGI (RPMI-8226 leukemia) was > 100 µM, the TGI (CCRF-CEM leukemia) was > 100 µM and the TGI (SNB-19 CNS) was > 100 µM. The TGI (HCC-2998 colon) was > 100 µM, the TGI (786-0 renal) was > 100 µM and the TGI (ACHN renal) was > 100 µM. For the same compound, the TGI (U251 CNS) was > 100 µM and the TGI (RXF 393 renal) was > 100 µM.
`CCOC(=O)CC(NC(=O)c1ccc(N=NN(C)C)cc1)C(=O)OCC` (stereo not drawn) was tested, and the TGI (RPMI-8226 leukemia) was > 100 µM, the TGI (CCRF-CEM leukemia) was > 100 µM and the TGI (SNB-19 CNS) was > 100 µM. For the same compound, the TGI (HCC-2998 colon) was > 100 µM, the TGI (786-0 renal) was > 100 µM and the TGI (ACHN renal) was > 100 µM. For the same compound, the TGI (U251 CNS) was > 100 µM.
With `COc1cc2c(cc1OCCCOc1ccc(-c3nc4ccc(N5CCN(C)CC5)cc4[nH]3)cc1)N=C[C@@H]1CCCN1C2=O` the GI50 (RPMI-8226 leukemia) was < 0.01 µM, the TGI (RPMI-8226 leukemia) was < 0.01 µM and the GI50 (CCRF-CEM leukemia) was < 0.01 µM. The TGI (CCRF-CEM leukemia) was 2.33 µM, the GI50 (SNB-19 CNS) was < 0.01 µM and the TGI (SNB-19 CNS) was 17.1 µM. The GI50 (DU-145 prostate) was < 0.01 µM, the TGI (DU-145 prostate) was 6.98 µM and the GI50 (786-0 renal) was < 0.01 µM. The TGI (786-0 renal) was 0.524 µM, the GI50 (BT-549 breast) was < 0.01 µM and the TGI (BT-549 breast) was < 0.01 µM. The GI50 (U251 CNS) was < 0.01 µM, the TGI (U251 CNS) was 5.07 µM and the GI50 (RXF 393 renal) was < 0.01 µM. The TGI (RXF 393 renal) was < 0.01 µM.
With `CC(C)[Si](OCC1CC(C#N)OC(C)(C)O1)(C(C)C)C(C)C` (stereo not drawn) the TGI (RPMI-8226 leukemia) was 33.8 µM, the TGI (CCRF-CEM leukemia) was 39.1 µM and the TGI (SNB-19 CNS) was 50.8 µM. The TGI (HCC-2998 colon) was 38.4 µM, the TGI (786-0 renal) was 35.2 µM and the TGI (ACHN renal) was 29.4 µM. The TGI (U251 CNS) was 30 µM and the TGI (RXF 393 renal) was 31.9 µM.

— PubChem BioAssay (NCI)
